Measurements as given in PMC11314410, “Synthesis and Anti-Trypanosoma cruzi Activity of New Pyrazole-Thiadiazole Scaffolds” (Molecules, 2024).
Values joined by “and” are separate entries in the source; they are usually repeats but may differ in a detail not shown here. Equal entries are not always repeated. Where two headings read alike, the source gives them in different places.

Experiments:
[1] = Cardiac toxicity in 3D cardiac spheroids (CellTiter-Glo, 72 h); type: cell-based, Swiss webster mice; conditions: Swiss webster, mouse, 3D cardiac microtissue (cardiac spheroids), ATP levels, read-out: Toxicity CC50 3D Culture
Experimental: (§1) Three-dimensional (3D) cardiac cells were obtained as previously described. Briefly, isolated cardiac muscle cells (2.5 × 10^4 cells/well) were seeded in 96-well U-bottom plates coated with agarose (1%) to form cell aggregates. Cardiac microtissue (7 days in culture) was employed to determine cardiotoxicity and drug efficacy in more complex systems. All animal-use procedures were approved by the Animal Care and Use Committee of Instituto Oswaldo Cruz (license L017/2022-A2).
(§2) The 2D cardiac cultures (5 × 10^4 cells/well) and 3D cardiac microtissues (2.5 × 10^4 cells/well) were incubated for 72 h at 37 °C with pyrazole-thiadiazole candidates followed by ATP detection by CellTiter-Glo [86]. A minimum of 3 independent assays were performed in duplicate.

[2] = test system: Intracellular amastigotes of T. cruzi (Dm28c-Luc); assay: microbe, parasite or virus in culture; type: cell-based, Trypanosoma cruzi; conditions: for IC50 / IC90: Trypanosoma cruzi; for IC90: read-out: Anti-T. cruzi Activity Intracellular Amastigotes IC90
Experimental: (§3) Genetically modified T. cruzi parasites, of clone Dm28c (TcI) expressing the firefly luciferase enzyme gene (Dm28c-Luc), were kindly provided by Dr. Cristina Henriques. T. cruzi Dm28c-Luc was maintained in a Vero cell cultivated in RPMI 1640 medium supplemented with 10% FBS. At 4-day post-infection (dpi), trypomastigotes, released in the cell culture supernatant, were harvested, followed by sedimentation (4000 rpm/20 min/4 °C) and quantification in a Neubauer chamber. Isolated trypomastigotes were used in the phenotypic screening assays as well as the antiparasitic activity in 3D cardiac microtissues, recovery (washout), and drug combination assays.
The activity of pyrazole-thiadiazole derivatives against intracellular amastigotes was evaluated in 24 h-T. cruzi infected Vero cell cultures (1.5 × 10^4 cells/well) at a 10:1 ratio. The cultures were washed and incubated with serial dilutions of the derivatives or Bz (100–0.41 µM). Drug treatment was carried out for 72 h at 37 °C and the parasite viability was determined by luminescence readout after D-Luciferin substrate addition (300 µg/mL). The reading was performed in the Glomax reader. The cell cultures incubated with the culture medium containing dimethylsulphoxide (DMSO; concentration ≤ 1%) were used as the […]. The concentrations required to inhibit parasite viability by 50% (IC50) and 90% (IC90) were calculated using Prism GraphPad software (version 8.2.1). The selectivity index (SI), which measures the window between cytotoxicity (CC50) and anti-T. cruzi activity (IC50), was calculated as CC50/IC50. A minimum of 3 independent assays in duplicate were performed.

[3] = test system: Trypomastigotes of T. cruzi (Dm28c-Luc); assay: microbe, parasite or virus in culture; type: cell-based, Trypanosoma cruzi; conditions: for IC50 / IC90: 24 h treatment; for IC50: mean ± SD, read-out: Anti-T. cruzi Activity Trypomastigotes IC50; for IC90: read-out: Anti-T. cruzi Activity Trypomastigotes IC90
Experimental: as §3
Drug screening was performed against clinically relevant forms of T. cruzi (amastigotes and trypomastigotes). Trypomastigotes, Dm28c-Luc (1 × 10^6 parasites/well), were added to 96-well plates and incubated with pyrazole-thiadiazole derivatives or Bz (100–0.41 µM). After 24 h of treatment (37 °C), the viability of the parasites was analyzed by adding a D-Luciferin solution (300 µg/mL) and luminescence was measured in the Glomax microplate reader.

[4] = Toxicity in mammalian cells (CellTiter Glo, 72 h); type: cell-based; conditions: African green monkey, Vero cells; 72 h, ATP levels; read-out: Cytotoxicity Vero Cells CC50
Experimental: (§4) Vero cell cultures grown in RPMI 1640 medium containing 10% fetal bovine serum (FBS) were cultured at 37 °C in a humidified atmosphere of 5% CO2 [82]. The cultures were used for drug screening assays and to obtain culture-derived trypomastigotes of T. cruzi.
(§5) Vero cells (1.5 ×10^4 cells/well), cultivated for 24 h at 37 °C in white 96-well plates with clear bottoms, were used to assess the toxicity of the pyrazole-thiadiazole derivatives (series 1 and 2). After washing, the cells were incubated for 72 h at 37 °C with different drug concentrations (500–1.95 μM). Cell viability was measured by adding 20 μL/well of CellTiter Glo reagent (Promega Corporation, Madison, WI, USA). This cell viability kit generates a luminescent signal proportional to the amount of ATP. The luminescence readout was performed using the Glomax Microplate Reader (Promega Corporation, Madison, WI, USA). Thus, the 50% cytotoxicity concentration (CC50), which reduces the cell viability by 50% (CC50), was calculated with Prism GraphPad software (version 8.2.1).

Vero cells = assay: Toxicity in mammalian cells (CellTiter Glo, 72 h); type: cell-based
Experimental: as §4, §5

[5] = test system: T. cruzi (Dm28c-Luc) intracellular parasites in 3D cardiac spheroids; assay: Antiparasitic activity in T. cruzi-infected 3D cardiac microtissues; type: cell-based, Trypanosoma cruzi; conditions: 100 µM, 72 h
Experimental: as §1
Cardiac spheroids (2.5 × 10^4 cells/well), formed after 7 days of cultivation in a U-bottom plate, were infected for 24 h with trypomastigote forms of T. cruzi (Dm28c-Luc) at a ratio of 20:1 parasite-host cell. After washing, the drugs were added at concentrations of IC90, two times IC90, and 100 µM, respecting the CC20 value of cardiac spheroids as the maximum concentration. Bz was added at 100 µM. Luminescence measurements, which reveal the luciferase activity of the viable parasites, were performed after the addition of D-luciferin substrate (300 µg/mL). The luminescent signal was read in the Glomax reader and the results were represented in arbitrary luminescence units (ALU). The fluorescence microscopy images were also acquired from untreated and drug-treated infected 3D microtissues. Three-dimensional cultures were fixed with 4% paraformaldehyde in PBS and labeled with 4′,6-diamidino-2-phenylindole (DAPI). Images were acquired using a Zeiss Axio Imager M2 fluorescence microscope using Axio vision software (version 4.8).

[6] = test system: T. cruzi (Dm28c-Luc) in Vero cell cultures; assay: Washout (recovery) assay in T. cruzi-infected Vero cell cultures; type: cell-based, Trypanosoma cruzi; conditions: for ALUmean of parasite load in cell monolayer, washout assay: 10 days treatment + 10 days without drug
Experimental: The culture medium of the untreated and treated infected cultures was replaced every 3 or 4 days by a fresh medium with or without the pyrazole-thiadiazole derivatives. The presence of free viable parasites in the culture supernatant was monitored at each medium change by adding luciferin (300 µg/mL) followed by readout on a Glomax microplate reader. At the endpoint, culture supernatants and cell monolayers were evaluated for viable parasites. Positive and negative controls were performed using Bz (150 µM) and DMSO (≤1%), respectively. A minimum of 3 independent experimental runs were performed with 12 replicates.

[7] = Cardiac toxicity in 2D cardiac monolayers (CellTiter-Glo, 72 h); type: cell-based, Swiss webster mice; conditions: Swiss webster, mouse, primary cardiac muscle cell monolayers (2D culture), ATP levels
Experimental: The primary culture of heart muscle cells was obtained from fetuses of Swiss webster mice. The heart was removed and the ventricles were fragmented and subjected to dissociation with trypsin and collagenase type II (Worthington Biochemical Corporation, Lakewood, USA) dissociation solution. Cell monolayers were employed to evaluate drug-induced cardiotoxicity.
as §2

Leishmania = test system: Leishmania; parameters: method as in PMID 32492796; conditions: cited from earlier work
[8] = Vero, read-out: Intracellular Amastigotes pIC50 (converted)
[9] = Dm28c-Luc in Vero cells, 72 h treatment, mean ± SD, read-out: Anti-T. cruzi Activity Intracellular Amastigotes IC50
[10] = Dm28c-Luc in Vero cells, 72 h treatment, mean ± SD
[11] = Trypanosoma cruzi, 24 h, Dm28c-Luc

SMILES | IC50 [2, 8] | IC50 [2, 9] | IC90 [2, 10] | IC50 [3, 11] | IC90 ([3]; Trypanosoma cruzi, Dm28c-Luc) | CC50 at 72 h [4] | melting point | Intracellular Amastigotes SI (CC50 of Vero cells/IC50 of intracellular amastigotes) [2] | Trypomastigotes SI (CC50 of Vero cells/IC50 of trypomastigotes) [3] | also measured
Nc1nnc(-c2cnn(-c3ccc(Cl)cc3Cl)c2)s1 [1c, 5-Amino-2-(1-(2,4-dichlorophenyl)-1H-pyrazol-4-yl)-1,3,4-thiadiazole] | 13.5 µM | 13.5 ± 4.47 µM | 42.3 ± 3.47 µM | 21.7 µM | > 100 µM | > 500 µM | 284 to 285 °C | – | – | CC50 at 72 h [1]: > 500 µM; Trypomastigotes IC75 ([3]; Dm28c-Luc, 24 h): 54.6 µM and 54.66 µM; IC50 ([3]; Dm28c-Luc): 21.7 ± 2.94 µM; CC20 for Vero cell monolayers (Vero cells): > 500 µM; ALUmean (luminescence, parasite load) in 3D cardiac microtissue [5]: 17,078 ± 2407 ALU; inhibition at 100 µM ([5]; Trypanosoma cruzi, vs infected untreated, read-out: Inhibition of parasite load in 3D cardiac microtissue): 57%; ALUmean of parasite load in cell monolayer, washout assay ([6]; 150 µM): 57,103 ± 15,228 ALU; ALUmean of parasite load in cell monolayer, washout assay ([6]; 300 µM): 66,378 ± 14,991 ALU; inhibition at 150 µM ([6]; Trypanosoma cruzi, Vero, 150 µM, 11 dpi, read-out: Inhibition in the release of trypomastigotes): 52%; inhibition at 300 µM ([6]; Trypanosoma cruzi, Vero, 300 µM, 11 dpi, read-out: Inhibition in the release of trypomastigotes): 66%; Prevention of reactivation of infection after drug withdrawal ([6]; washout assay): trypanostatic action; CC50 at 72 h [7]: > 500 µM
C[C@@H]1[C@H](O)[C@@H](C)/C=C/C=C/C=C/C=C/C=C/C=C/C=C/[C@H](O[C@@H]2O[C@H](C)[C@@H](O)[C@H](N)[C@@H]2O)C[C@@H]2O[C@](O)(C[C@@H](O)C[C@@H](O)[C@H](O)CC[C@@H](O)C[C@@H](O)CC(=O)O[C@H]1C)C[C@H](O)[C@H]2C(=O)O [amphotericin B] | – | – | – | – | – | – | – | – | – | EC50 (Leishmania; 2D model): 0.0349 µM; EC50 (Leishmania; 3D macrophage cultures): 0.0523 µM; Increase in the EC50 value of 3D vs 2D macrophage cultures (Leishmania): 33%
COc1ccc(-n2ncc(-c3nnc(N)s3)c2N)cc1 [2l, 5-Amino-2-(5-amino-1-(4-methoxyphenyl)-1H-pyrazol-4-yl)-1,3,4-thiadiazole] | > 70.8 µM | > 70 µM | > 70 µM | > 100 µM | > 100 µM | > 500 µM | 303 to 305 °C | >7.14 | >100 | –
Nc1nnc(-c2cnn(-c3ccc(F)cc3)c2)s1 [1g, 5-Amino-2-(1-(4-fluorophenyl)-1H-pyrazol-4-yl)-1,3,4-thiadiazole] | > 70.8 µM | > 70 µM | > 70 µM | > 100 µM | > 100 µM | > 500 µM | 335 to 337 °C | >7.14 | >5 | –
Nc1nnc(-c2cnn(-c3ccc(Cl)cc3Cl)c2N)s1 [2c, 5-Amino-2-(5-amino-1-(2,4-dichlorophenyl)-1H-pyrazol-4-yl)-1,3,4-thiadiazole] | > 70.8 µM | > 70 µM | > 70 µM | > 100 µM | > 100 µM | > 500 µM | 165 to 167 °C | >7.14 | >5 | Reduction of the release of trypomastigotes ([6]; washout assay, concentration and day not stated): ≥ 82%
Nc1nnc(-c2cnn(-c3ccc(Cl)cc3)c2N)s1 [2f, 5-Amino-2-(5-amino-1-(4-chlorophenyl)-1H-pyrazol-4-yl)-1,3,4-thiadiazole] | > 70.8 µM | > 70 µM | > 70 µM | > 100 µM | > 100 µM | > 500 µM | 238 to 240 °C | >7.14 | >5 | –
Nc1nnc(-c2cnn(-c3ccc(Cl)cc3)c2)s1 [1f, 5-Amino-2-(1-(4-chlorophenyl)-1H-pyrazol-4-yl)-1,3,4-thiadiazole] | > 70.8 µM | > 70 µM | > 70 µM | > 100 µM | > 100 µM | > 500 µM | 328 to 330 °C | >7.14 | >5 | –
Nc1nnc(-c2cnn(-c3cc(Cl)cc(Cl)c3)c2N)s1 [2d, 5-Amino-2-(5-amino-1-(3,5-dichlorophenyl)-1H-pyrazol-4-yl)-1,3,4-thiadiazole] | > 70.8 µM | > 70 µM | > 70 µM | > 100 µM | > 100 µM | > 500 µM | 299 to 300 °C | >7.14 | >5 | –
